The values below come from patent US11667606B2, “Thyromimetics” (Autobahn Therapeutics, Inc., priority 2019, dated 2023).

The target in one experiment is T1, TRα (Homo sapiens, UniProt P10827).
T1 construct: expressed in transfected cells; host or cells: HEK293
T1 sequence (P10827 128-410 isoform P10827-2 limits assumed): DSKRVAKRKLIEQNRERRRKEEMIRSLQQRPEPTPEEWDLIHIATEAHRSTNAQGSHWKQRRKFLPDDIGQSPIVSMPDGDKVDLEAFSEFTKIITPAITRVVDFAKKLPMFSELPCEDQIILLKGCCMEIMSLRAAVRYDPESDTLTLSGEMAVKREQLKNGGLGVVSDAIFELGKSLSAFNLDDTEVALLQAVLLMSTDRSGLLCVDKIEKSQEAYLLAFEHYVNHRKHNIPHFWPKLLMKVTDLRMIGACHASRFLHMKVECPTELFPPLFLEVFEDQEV
As to the kind of experiment: Thyroid-hormone reporter-gene assay, TRα (Gal4 DBD hybrid, luciferase, HEK293). The settings on record: reporter cells derived from HEK293, 24 hr incubation, luciferase readout. The format is cell-based. The procedure: (§1) Compounds were tested for thyroid-hormone receptor activity using TR reporter-gene assays. Reporter cells used in the assays express a TR-receptor hybrid (either TRα or TRβ) in which the native N-terminal DNA binding domain (DBD) has been replaced with that of the yeast Gal4 DBD. The reporter gene, firefly luciferase, is functionally linked to the Gal4 upstream activation sequence (UAS). Both cell lines were derived from human embryonic kidney (HEK293).
(§2) A suspension of reporter cells was prepared in cell recovery medium containing 10% charcoal-stripped FBS, and dispensed into assay plates. The plates were pre-incubated for 6 hours in a cell culture incubator (37° C./5% CO2/85% humidity).
(§3) These intermediate stocks were subsequently diluted directly into compound screening medium containing 10% charcoal-stripped FBS to generate “2×-concentration” treatment media (containing 0.2, 0.4 or 0.8% DMSO).
(§4) At the end of the pre-incubation period, culture media were discarded from the assay plates, and all wells received 100 μl of compound screening medium. 100 μl of each of the previously prepared “2×-concentration” treatment media were dispensed into duplicate assay wells, thereby achieving the desired final treatment concentrations. The final concentration of DMSO in all assay wells was 0.1, 0.2 or 0.4%. Assay plates were incubated for 24 hr in a cell culture incubator (37° C./5% CO2/85% humidity).
(§5) At the 24 h assay endpoint, treatment media were discarded and […] of luciferase detection reagent was added. Relative luminometer units (RLUs) were quantified from each assay well.

The next experiment deals with T2, TRβ (Homo sapiens, UniProt P10828).
T2 construct: expressed in transfected cells; host or cells: HEK293
T2 sequence (P10828 217-461 limits assumed): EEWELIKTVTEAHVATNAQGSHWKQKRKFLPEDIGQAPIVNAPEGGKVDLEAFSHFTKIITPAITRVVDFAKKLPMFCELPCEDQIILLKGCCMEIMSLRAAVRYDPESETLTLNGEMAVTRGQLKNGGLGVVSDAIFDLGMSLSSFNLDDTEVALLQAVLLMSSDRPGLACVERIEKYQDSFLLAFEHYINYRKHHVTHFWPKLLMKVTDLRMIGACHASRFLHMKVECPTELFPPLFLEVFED
The experiment can be described thus: Thyroid-hormone reporter-gene assay, TRβ (Gal4 DBD hybrid, luciferase, HEK293). The format is cell-based. The settings on record: for T3-SI, selectivity index (SI) calculated as EC50 (TRα)/EC50 (TRβ): TRβ over TRα selectivity from reporter-gene EC50 values; for EC50: reporter cells derived from HEK293, 24 hr incubation, luciferase readout. The procedure: as §1, §2, §3, §4, §5

What is called EC50 is the concentration needed to bring the measured effect to its halfway point. Lower therefore signals a more potent agent.

At TRα, `O=C(O)COc1cc(Cl)c(Cc2ccc(O)c(Cc3cccc(F)c3)c2)c(Cl)c1` [Compound 86, 2-(3,5-dichloro-4-(3-(3-fluorobenzyl)-4-hydroxybenzyl)phenoxy)acetic Acid] had an EC50 greater than 1000 nM. Also, at TRβ, the “T3-SI, selectivity index (SI) calculated as EC50 (TRα)/EC50 (TRβ)” value (from here on “T3-SI, selectivity index (SI) calculated”) was “++ (3X < T3-SI ≤ 30X)” and the 50% effective concentration (EC50) was greater than 1000 nM.
The molecule `O=C(O)COc1cc(Cl)c(Cc2ccc(O)c(Cc3ccccc3F)c2)c(Cl)c1` [Compound 84, 2-(3,5-dichloro-4-(3-(2-fluorobenzyl)-4-hydroxybenzyl)phenoxy)acetic Acid] displayed an EC50 at TRα greater than 1000 nM. For the same molecule, on TRβ, the “T3-SI, selectivity index (SI) calculated” value is recorded as “++ (3X < T3-SI ≤ 30X)” and the concentration giving a half-maximal response (EC50) was greater than 1000 nM.
As for `CCc1ccc(F)c(-c2cc(Cc3c(Cl)cc(OCC(=O)O)cc3Cl)ccc2O)c1` [Compound 51, 2-(3,5-dichloro-4-((5′-ethyl-2′-fluoro-6-hydroxy-[1,1′-biphenyl]-3-yl)methyl)phenoxy)acetic Acid], the EC50 at TRα is greater than 1000 nM. Also, on TRβ, the “T3-SI, selectivity index (SI) calculated” value is “++ (3X < T3-SI ≤ 30X)” and the EC50 is greater than 1000 nM.
Molecule `COCC(c1ccc(F)cc1)c1cc(Cc2c(Cl)cc(OCC(=O)O)cc2Cl)ccc1O` (stereo not drawn) [Compound 129, 2-(3,5-dichloro-4-(3-(1-(4-fluorophenyl)-2-methoxyethyl)-4-hydroxybenzyl)phenoxy)acetic Acid] had an EC50 at TRα greater than 1000 nM. Further, at TRβ, the “T3-SI, selectivity index (SI) calculated” value is reported as “+++ (T3-SI > 30X)” and the EC50 is 100 to 1000 nM.
For `CCc1cccc(-c2cc(Cc3c(Cl)cc(OCC(=O)O)cc3Cl)ccc2O)c1` [Compound 3, 2-(3,5-dichloro-4-((3′-ethyl-6-hydroxy-[1,1′-biphenyl]-3-yl)methyl)phenoxy)acetic Acid], the concentration giving a half-maximal response (EC50) at TRα is greater than 1000 nM. Besides, on TRβ, the “T3-SI, selectivity index (SI) calculated” value is recorded as “+++ (T3-SI > 30X)” and the EC50 lay within 100 to 1000 nM.
`O=C(O)COc1cc(Cl)c(Cc2ccc(O)c(Cc3ccc(F)cc3)c2)c(Cl)c1` [Compound 70, 2-(3,5-dichloro-4-(3-(4-fluorobenzyl)-4-hydroxybenzyl)phenoxy)acetic Acid]: the concentration for a half-maximal effect (EC50) on TRα is greater than 1000 nM. In addition, on TRβ, the “T3-SI, selectivity index (SI) calculated” value was “+++ (T3-SI > 30X)” and the concentration for a half-maximal effect (EC50) lay within 100 to 1000 nM.
Regarding `O=C(O)COc1cc(Cl)c(Cc2ccc(O)c(-c3cccc(OC(F)F)c3F)c2)c(Cl)c1` [Compound 56, 2-(3,5-dichloro-4-((3′-(difluoromethoxy)-2′-fluoro-6-hydroxy-[1,1′-biphenyl]-3-yl)methyl)phenoxy)acetic Acid], the EC50 at TRα was greater than 1000 nM. On TRβ, the “T3-SI, selectivity index (SI) calculated” value was “++ (3X < T3-SI ≤ 30X)” and the concentration giving a half-maximal response (EC50) was in the range of 100 to 1000 nM.
For the molecule `Cc1cc(OCC(=O)O)cc(Cl)c1Cc1ccc(O)c(-c2cccc(OC(F)F)c2)c1` [Compound 62, 2-(3-chloro-4-((3′-(difluoromethoxy)-6-hydroxy-[1,1′-biphenyl]-3-yl)methyl)-5-methylphenoxy)acetic Acid], on TRα, the EC50 is greater than 1000 nM. Besides, on TRβ, the “T3-SI, selectivity index (SI) calculated” value is on record as “++ (3X < T3-SI ≤ 30X)” and the concentration for a half-maximal effect (EC50) was in the range of 100 to 1000 nM.
At TRα, `Cc1cc(OCC(=O)O)cc(Br)c1Cc1ccc(O)c(C(C)c2ccc(F)cc2)c1` (stereo not drawn) [Compound 131, 2-(3-bromo-4-(3-(1-(4-fluorophenyl)ethyl)-4-hydroxybenzyl)-5-methylphenoxy)acetic Acid] registered an EC50 of 10 to 100 nM. Moreover, on TRβ, the “T3-SI, selectivity index (SI) calculated” value is listed as “++ (3X < T3-SI ≤ 30X)” and the 50% effective concentration (EC50) was less than 10 nM.
For `CC(C)(c1ccc(F)cc1)c1cc(Cc2c(Cl)cc(OCC(=O)O)cc2Cl)ccc1O` [Compound 105, 2-(3,5-dichloro-4-(3-(2-(4-fluorophenyl)propan-2-yl)-4-hydroxybenzyl)phenoxy)acetic Acid] the same measures were 100 to 1000 nM, “++ (3X < T3-SI ≤ 30X)” and 10 to 100 nM.
For `CC(c1ccc(F)cc1)c1cc(Cc2c(Cl)cc(OCC(=O)O)cc2Cl)ccc1O` (stereo not drawn) [Compound 73, 2-(3,5-dichloro-4-(3-(1-(4-fluorophenyl)ethyl)-4-hydroxybenzyl)phenoxy) acetic Acid], in that order: 10 to 100 nM, “++ (3X < T3-SI ≤ 30X)” and 10 to 100 nM.
Take `O=C(O)COc1cc(Cl)c(Cc2ccc(O)c(C3CCc4cc(F)ccc43)c2)c(Cl)c1` (stereo not drawn) [Compound 113, 2-(3,5-dichloro-4-(3-(5-fluoro-2,3-dihydro-1H-inden-1-yl)-4-hydroxybenzyl)phenoxy)acetic Acid]: the EC50 on TRα is greater than 1000 nM. Besides, at TRβ, the “T3-SI, selectivity index (SI) calculated” value is given as “++ (3X < T3-SI ≤ 30X)” and the 50% effective concentration (EC50) was greater than 1000 nM.
In the case of `O=C(O)COc1cc(Cl)c(Cc2ccc(O)c(-c3cccc(C(F)(F)F)c3)c2)c(Cl)c1` [Compound 1, 2-(3,5-dichloro-4-((6-hydroxy-3′-(trifluoromethyl)-[1,1′-biphenyl]-3-yl)methyl)phenoxy)acetic Acid], at TRα, the concentration for a half-maximal effect (EC50) lay in the range of 100 to 1000 nM. On TRβ, the “T3-SI, selectivity index (SI) calculated” value is reported as “++ (3X < T3-SI ≤ 30X)” and the EC50 was in the range of 100 to 1000 nM.
In the case of `COc1cccc(-c2cc(Cc3c(Cl)cc(OCC(=O)O)cc3Cl)ccc2O)c1` [Compound 7, 2-(3,5-dichloro-4-((6-hydroxy-3′-methoxy-[1,1′-biphenyl]-3-yl)methyl)phenoxy)acetic Acid], at TRα, the concentration for a half-maximal effect (EC50) was greater than 1000 nM. For the same molecule, at TRβ, the “T3-SI, selectivity index (SI) calculated” value is given as “++ (3X < T3-SI ≤ 30X)” and the EC50 was greater than 1000 nM.
Consider `CCCc1cccc(-c2cc(Cc3c(Cl)cc(OCC(=O)O)cc3Cl)ccc2O)c1` [Compound 16, 2-(3,5-dichloro-4-((6-hydroxy-3′-propyl-[1,1′-biphenyl]-3-yl)methyl)phenoxy)acetic Acid], for which, on TRα, the EC50 is greater than 1000 nM. In addition, at TRβ, the “T3-SI, selectivity index (SI) calculated” value is “+++ (T3-SI > 30X)” and the half-maximal effective concentration (EC50) was in the range of 100 to 1000 nM.
As to `O=C(O)COc1cc(Cl)c(Cc2ccc(O)c(Cc3ccsc3)c2)c(Cl)c1` [Compound 121, 2-(3,5-dichloro-4-(4-hydroxy-3-(thiophen-3-ylmethyl)benzyl)phenoxy) acetic Acid], on TRα, the EC50 is greater than 1000 nM. On TRβ, the “T3-SI, selectivity index (SI) calculated” value is “++ (3X < T3-SI ≤ 30X)” and the EC50 was in the range of 100 to 1000 nM.
Regarding `Cc1cc(OCC(=O)O)cc(Cl)c1Cc1ccc(O)c(Cc2ccc(F)cc2)c1` [Compound 115, 2-(3-chloro-4-(3-(4-fluorobenzyl)-4-hydroxybenzyl)-5-methylphenoxy) acetic Acid], the EC50 at TRα fell in the range of 100 to 1000 nM. At TRβ, the “T3-SI, selectivity index (SI) calculated” value is on record as “++ (3X < T3-SI ≤ 30X)” and the concentration for a half-maximal effect (EC50) fell in the range of 10 to 100 nM.
With `O=C(O)COc1cc(Cl)c(Cc2ccc(O)c(-c3ccco3)c2)c(Cl)c1` [Compound 38, 2-(3,5-dichloro-4-(3-(furan-2-yl)-4-hydroxybenzyl)phenoxy)acetic acid], at TRα, the half-maximal effective concentration (EC50) is greater than 1000 nM. Also, at TRβ, the “T3-SI, selectivity index (SI) calculated” value is “++ (3X < T3-SI ≤ 30X)” and the EC50 was greater than 1000 nM.
`O=C(O)COc1cc(Cl)c(Cc2ccc(O)c(-c3ccoc3)c2)c(Cl)c1` [Compound 40, 2-(3,5-dichloro-4-(3-(furan-3-yl)-4-hydroxybenzyl)phenoxy)acetic acid] came in with an EC50 at TRα greater than 1000 nM. Also, at TRβ, the “T3-SI, selectivity index (SI) calculated” value was “++ (3X < T3-SI ≤ 30X)” and the 50% effective concentration (EC50) was greater than 1000 nM.
On TRα, `O=C(O)COc1cc(Cl)c(Cc2ccc(O)c(Cc3ccc(F)cc3F)c2)c(Cl)c1` [Compound 88, 2-(3,5-dichloro-4-(3-(2,4-difluorobenzyl)-4-hydroxybenzyl)phenoxy)acetic Acid] registered an EC50 of 100 to 1000 nM. At TRβ, the “T3-SI, selectivity index (SI) calculated” value is “++ (3X < T3-SI ≤ 30X)” and the EC50 was 100 to 1000 nM.
In the case of `O=C(O)COc1cc(Cl)c(Cc2ccc(O)c(Cc3ccoc3)c2)c(Cl)c1` [Compound 119, 2-(3,5-dichloro-4-(3-(furan-3-ylmethyl)-4-hydroxybenzyl)phenoxy)acetic Acid], the results for the concentration giving a half-maximal response (EC50) on TRα and on TRβ were greater than 1000 nM and 100 to 1000 nM, respectively. Moreover, the “T3-SI, selectivity index (SI) calculated” value on TRβ is “++ (3X < T3-SI ≤ 30X)”.
